Tests used:
[1] = target: T1, human 5HT1Dβ receptor (Homo sapiens, UniProt P28222); test: Binding to human 5HT1Dβ receptor ([3H]serotonin); conditions: cloned human receptor
T1 construct: expressed in transfected cells
Experimental: 5HT1Dα, 5HT1Dβ, 5HT1E, 5HT1F Receptors: LM(tk−) clonal cell lines stably transfected with the genes encoding each of these 5HT receptor subtypes were prepared as described above. […] Membrane preparations comprising these receptors were prepared as described below, and suspended in 50 mM Tris-HCl buffer (pH 7.4 at 37° C.) containing 10 mM MgCl2, 0.2 mM EDTA, 10 μM pargyline, and 0.1% ascorbate. The binding of compounds was determined in competition binding assays by incubation for 30 minutes at 37° C. in the presence of 5 nM [^3H) serotonin. Nonspecific binding was determined in the presence of 10 μM serotonin.

[2] = target: 5HT1a (Homo sapiens, UniProt P08908); test: Binding to cloned human 5HT1a receptor
[3] = target: T2, human α1a receptor (Homo sapiens, UniProt P35348); test: Binding to cloned human α1a adrenergic receptor
T2 construct: expressed in transfected cells
Source text: α1 Human Adrenergic Receptors: To determine the binding of compounds to human α1 receptors, LM(tk−) cell lines stably transfected with the genes encoding the α1a, α1b, and α1d receptors were used. The nomenclature describing the α1 receptors was changed recently, such that the receptor formerly designated α1a is now designated α1d, and the receptor formerly designated α1c is now designated α1a (ref).

[4] = target: T3, human 5HT1F receptor (Homo sapiens, UniProt P30939); test: Binding to human 5HT1F receptor ([3H]serotonin); conditions: cloned human receptor
T3 construct: expressed in transfected cells
T3 sequence (P30939 1-366): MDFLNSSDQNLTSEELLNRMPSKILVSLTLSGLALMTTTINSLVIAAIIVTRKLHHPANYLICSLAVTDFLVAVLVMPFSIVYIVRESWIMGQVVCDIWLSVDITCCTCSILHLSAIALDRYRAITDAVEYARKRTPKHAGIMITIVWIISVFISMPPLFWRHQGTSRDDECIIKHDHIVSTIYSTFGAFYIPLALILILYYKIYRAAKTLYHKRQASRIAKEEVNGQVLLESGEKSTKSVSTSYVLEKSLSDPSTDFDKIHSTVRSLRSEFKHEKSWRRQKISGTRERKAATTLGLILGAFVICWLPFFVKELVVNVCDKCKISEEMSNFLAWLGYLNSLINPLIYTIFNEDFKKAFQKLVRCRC
Experimental: 5HT1Dα, 5HT1Dβ, 5HT1E, 5HT1F Receptors: LM(tk−) clonal cell lines stably transfected with the genes encoding each of these 5HT receptor subtypes were prepared as described above. The cell line for the 5HT1Dα, receptor, designated as Ltk−8-30-84, was deposited on Apr. 17, 1990, and accorded ATCC Accession No. CRL 10421. The cell for the 5HT1Dβ receptor, designated as Ltk−11, was deposited on Apr. 17, 1990, and accorded ATCC Accession No. CRL 10422. The cell line for the 5HT1E receptor, designated 5 HT1E-7, was deposited on Nov. 6, 1991, and accorded ATCC Accession No. CRL 10913. The cell line for the 5HT1F receptor, designated L-5-HT1F, was deposited on Dec. 27, 1991, and accorded ATCC Accession No. ATCC 10957. Membrane preparations comprising these receptors were prepared as described below, and suspended in 50 mM Tris-HCl buffer (pH 7.4 at 37° C.) containing 10 mM MgCl2, 0.2 mM EDTA, 10 μM pargyline, and 0.1% ascorbate. The binding of compounds was determined in competition binding assays by incubation for 30 minutes at 37° C. in the presence of 5 nM [^3H) serotonin. Nonspecific binding was determined in the presence of 10 μM serotonin. The bound radioligand was separated by filtration through GF/B filters using a cell harvester.

[5] = target: T4, human Y2 receptor (Homo sapiens, UniProt P49146); test: Radioligand binding to cloned human Y2 receptor (125I-PYY); conditions: cloned human Y2, stably transfected cells, read-out: Binding Affinity (K1 (nM) vs. 125I-PYY) Human Receptor Y2
T4 construct: expressed in transfected cells
T4 sequence (P49146 1-381): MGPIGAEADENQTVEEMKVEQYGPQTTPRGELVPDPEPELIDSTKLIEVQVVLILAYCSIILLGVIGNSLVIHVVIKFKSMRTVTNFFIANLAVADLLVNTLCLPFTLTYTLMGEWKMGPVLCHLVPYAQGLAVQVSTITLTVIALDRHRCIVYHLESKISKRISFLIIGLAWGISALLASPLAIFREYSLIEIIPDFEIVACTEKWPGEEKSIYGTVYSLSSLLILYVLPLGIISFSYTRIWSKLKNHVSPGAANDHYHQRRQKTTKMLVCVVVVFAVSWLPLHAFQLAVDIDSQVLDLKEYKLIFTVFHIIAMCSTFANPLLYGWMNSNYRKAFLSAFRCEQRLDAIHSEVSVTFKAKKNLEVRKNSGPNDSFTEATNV
Experimental: (§1) Human Y1, human Y2, and rat Y5 receptors were co-transfected with a G-418 resistant gene into the human embryonic kidney 293 cell line by a calcium phosphate transfection method (Cullen, 1987). Stably transfected cells were selected with G-418. Human Y4 and human Y5 receptors were similarly transfected into mouse fibroblast LM(tk−) cells and NIH-3T3 cells.
(§2) Binding of the compounds of the present invention to the human Y1, Y2, Y4 and Y5 receptors was evaluated using stably transfected 293 or LM(tk−) cells as described above. Stably transfected cell lines which may be used for binding assays include, for example, for the human Y1 receptor, 293-hY1-5 (deposited Jun. 4, 1996, under ATCC Accession No. CRL-12121), for the human Y2 receptor, 293-hY2-10 (deposited Jan. 27, 1994, under ATCC Accession No. CRL-11537), for the human Y4 receptor, L-hY4-3 (deposited Jan. 11, 1995, under ATCC Accession No. CRL-11779), and for the human Y5 receptor, L-hY5-7 (deposited Nov. 15, 1995, under ATCC Accession No. CRL-11995).
(§3) Membranes were harvested from COS-7 cells 48 hours after transient transfection. Adherent cells were washed twice in ice-cold phosphate buffered saline (138 mM NaCl, 8.1 mM Na2HPO4, 2.5 mM KCl, […], 0.9 mM CaCl2, 0.5 mM MgCl2, pH 7.4) and lysed by sonication in ice-cold sonication buffer (20 mM Tris-HCl, 5 mM EDTA, pH 7.7). Large particles and debris were cleared by low speed centrifugation (200 x g, 5 min, 4° C.). Membranes were collected from the supernatant fraction by centrifugation (32,000 x g, 18 min, […] ), washed with ice-cold hypotonic buffer, and collected again by centrifugation (32,000 x g, 18 min, 4° C.). […] Protein concentration was measured by the Bradford method (Bradford, 1976) using Bio-Rad Reagent, with bovine serum albumin as a standard. Membranes were held on ice for up to one hour and used fresh, or flash-frozen and stored in liquid nitrogen.
(§4) Membranes were prepared similarly from 293, LM(tk−), and NIH-3T3 cells. To prepare membranes from baculovirus infected cells, 2×10^7 Sf21 cells were grown in 150 mm tissue culture dishes and infected with a high-titer stock of hY5BB3. Cells were incubated for 2-4 days at 27° C., no CO2 be fore harvesting and membrane preparation as described above.

[6] = target: T5, human Y4 receptor (Homo sapiens, UniProt P50391); test: Radioligand binding to cloned human Y4 receptor (125I-PYY); conditions: cloned human Y4, stably transfected cells, read-out: Binding Affinity (K1 (nM) vs. 125I-PYY) Human Receptor Y4
T5 construct: expressed in transfected cells
T5 sequence (P50391 whole entry): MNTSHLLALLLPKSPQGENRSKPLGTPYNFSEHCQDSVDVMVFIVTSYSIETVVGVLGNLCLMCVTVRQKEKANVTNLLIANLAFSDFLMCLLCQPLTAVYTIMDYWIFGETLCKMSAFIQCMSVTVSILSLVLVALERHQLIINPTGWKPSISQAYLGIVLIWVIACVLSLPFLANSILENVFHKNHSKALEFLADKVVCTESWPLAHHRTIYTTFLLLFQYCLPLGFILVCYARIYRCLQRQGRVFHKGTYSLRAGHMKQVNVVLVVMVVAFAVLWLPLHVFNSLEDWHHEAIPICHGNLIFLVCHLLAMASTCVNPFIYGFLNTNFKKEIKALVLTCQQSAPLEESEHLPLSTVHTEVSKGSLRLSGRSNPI
Experimental: as §1, §2, §3, §4

T1 sequence (P28222 whole entry): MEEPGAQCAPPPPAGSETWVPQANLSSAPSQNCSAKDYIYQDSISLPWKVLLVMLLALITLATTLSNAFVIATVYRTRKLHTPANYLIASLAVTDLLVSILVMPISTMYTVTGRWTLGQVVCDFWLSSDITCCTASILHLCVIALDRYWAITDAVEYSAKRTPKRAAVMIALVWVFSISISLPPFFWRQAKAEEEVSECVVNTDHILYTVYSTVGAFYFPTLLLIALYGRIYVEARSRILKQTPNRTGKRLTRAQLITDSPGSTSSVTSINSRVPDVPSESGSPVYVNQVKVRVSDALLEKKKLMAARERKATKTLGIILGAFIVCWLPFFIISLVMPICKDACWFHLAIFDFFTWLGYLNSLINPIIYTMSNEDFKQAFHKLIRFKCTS
T2 sequence (P35348 whole entry): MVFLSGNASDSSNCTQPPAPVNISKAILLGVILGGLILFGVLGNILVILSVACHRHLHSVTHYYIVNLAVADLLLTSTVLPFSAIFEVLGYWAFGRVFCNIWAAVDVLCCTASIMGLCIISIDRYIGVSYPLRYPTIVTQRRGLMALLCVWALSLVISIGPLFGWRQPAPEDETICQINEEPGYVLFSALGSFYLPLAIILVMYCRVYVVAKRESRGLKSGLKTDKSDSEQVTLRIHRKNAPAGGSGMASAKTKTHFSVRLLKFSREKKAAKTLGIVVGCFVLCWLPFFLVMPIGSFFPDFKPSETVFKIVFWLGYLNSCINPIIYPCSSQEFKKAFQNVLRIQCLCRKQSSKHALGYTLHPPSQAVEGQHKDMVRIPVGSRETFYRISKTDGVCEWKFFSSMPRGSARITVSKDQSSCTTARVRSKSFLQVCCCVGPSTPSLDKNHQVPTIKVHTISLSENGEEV
Chain of 5HT1a (P08908 whole entry): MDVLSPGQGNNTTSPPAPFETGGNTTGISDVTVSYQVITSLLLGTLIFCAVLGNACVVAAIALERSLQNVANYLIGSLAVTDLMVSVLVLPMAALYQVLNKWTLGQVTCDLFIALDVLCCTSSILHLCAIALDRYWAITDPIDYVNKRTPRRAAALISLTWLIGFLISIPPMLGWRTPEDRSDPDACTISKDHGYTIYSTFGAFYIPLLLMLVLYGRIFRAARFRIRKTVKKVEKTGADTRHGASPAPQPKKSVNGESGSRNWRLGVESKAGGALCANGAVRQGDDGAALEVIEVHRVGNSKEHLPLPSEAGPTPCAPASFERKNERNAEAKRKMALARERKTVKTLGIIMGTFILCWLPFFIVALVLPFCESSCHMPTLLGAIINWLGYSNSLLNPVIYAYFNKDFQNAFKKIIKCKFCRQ

Structure (SMILES)	Receptor (pKi) 5HT1Dβ [1]	Receptor (pKi) 5HT1a [2]	Receptor (pKi) α1a [3]	Receptor (pKi) 5HT1F [4]	Ki [5] [nM]	Ki [6] [nM]
Cl.O=S(=O)(NCC1CCC(CNCC2CCc3ccccc3C2)CC1)c1cccc2ccccc12 (centres unmarked) [Example 32]	≤ 5.30	5.54	7.47	≤ 5.30	955	11700
Cl.O=[N+]([O-])c1ccccc1S(=O)(=O)NCC1CCC(CNCC2CCc3ccccc3C2)CC1 (centres unmarked) [Example 36]	5.37	–	7.72	≤ 5.30	7760	20400

Source: patent US6734182B2, “Aryl sulfonamides and sulfamide derivatives and uses thereof” (Synaptic Pharmaceutical Corporation, priority 1995, dated 2004)
